Active and inactive are the calls of the source. The rule behind the calls is not given here.
What was measured:
Homo sapiens = species: Homo sapiens; test: Inhibition of telomerase (unknown origin) at 10 uM TRAP assay
CAKI-1 = test: Cytotoxicity against human CAKI-1 cells at 10 uM after 48 hrs by sulforhodamine B assay relative to control; type: functional
MDA-MB-468 = test: Cytotoxicity against human MDA-MB-468 cells at 10 uM after 48 hrs by sulforhodamine B assay relative to control; type: functional
T47D = test: Cytotoxicity against human T47D cells at 10 uM after 48 hrs by sulforhodamine B assay relative to control; type: functional
BT-549 = test: Cytotoxicity against human BT549 cells at 10 uM after 48 hrs by sulforhodamine B assay relative to control; type: functional
[1] = Cytotoxicity against human Hs 578T cells at 10 uM after 48 hrs by sulforhodamine B assay relative to control; type: functional
MDA-MB-231 = test: Cytotoxicity against human MDA-MB-231 cells at 10 uM after 48 hrs by sulforhodamine B assay relative to control; type: functional
MCF7 = test: Cytotoxicity against human MCF7 cells at 10 uM after 48 hrs by sulforhodamine B assay relative to control; type: functional
DU-145 = test: Cytotoxicity against human DU145 cells at 10 uM after 48 hrs by sulforhodamine B assay relative to control; type: functional
PC-3 [2] = test: Cytotoxicity against human PC3 cells at 10 uM after 48 hrs by sulforhodamine B assay relative to control; type: functional
UO-31 = test: Cytotoxicity against human UO31 cells at 10 uM after 48 hrs by sulforhodamine B assay relative to control; type: functional
TK-10 = test: Cytotoxicity against human TK10 cells at 10 uM after 48 hrs by sulforhodamine B assay relative to control; type: functional
SN12C = test: Cytotoxicity against human SN12C cells at 10 uM after 48 hrs by sulforhodamine B assay relative to control; type: functional
RXF 393 = test: Cytotoxicity against human RXF393 cells at 10 uM after 48 hrs by sulforhodamine B assay relative to control; type: functional
ACHN = test: Cytotoxicity against human ACHN cells at 10 uM after 48 hrs by sulforhodamine B assay relative to control; type: functional
786-0 = test: Cytotoxicity against human 786-0 cells at 10 uM after 48 hrs by sulforhodamine B assay relative to control; type: functional
NCI/ADR-RES = test: Cytotoxicity against human NCI/ADR-RES cells at 10 uM after 48 hrs by sulforhodamine B assay relative to control; type: functional
OVCAR-8 = test: Cytotoxicity against human OVCAR8 cells at 10 uM after 48 hrs by sulforhodamine B assay relative to control; type: functional
OVCAR-5 = test: Cytotoxicity against human OVCAR5 cells at 10 uM after 48 hrs by sulforhodamine B assay relative to control; type: functional
OVCAR-4 = test: Cytotoxicity against human OVCAR4 cells at 10 uM after 48 hrs by sulforhodamine B assay relative to control; type: functional
OVCAR-3 = test: Cytotoxicity against human OVCAR3 cells at 10 uM after 48 hrs by sulforhodamine B assay relative to control; type: functional
IGROV-1 = test: Cytotoxicity against human IGROV1 cells at 10 uM after 48 hrs by sulforhodamine B assay relative to control; type: functional
UACC-62 = test: Cytotoxicity against human UACC62 cells at 10 uM after 48 hrs by sulforhodamine B assay relative to control; type: functional
UACC-257 = test: Cytotoxicity against human UACC257 cells at 10 uM after 48 hrs by sulforhodamine B assay relative to control; type: functional
SK-MEL-5 = test: Cytotoxicity against human SK-MEL-5 cells at 10 uM after 48 hrs by sulforhodamine B assay relative to control; type: functional
SK-MEL-28 = test: Cytotoxicity against human SK-MEL-28 cells at 10 uM after 48 hrs by sulforhodamine B assay relative to control; type: functional
SK-MEL-2 = test: Cytotoxicity against human SK-MEL-2 cells at 10 uM after 48 hrs by sulforhodamine B assay relative to control; type: functional
MDA-MB-435 = test: Cytotoxicity against human MDA-MB-435 cells at 10 uM after 48 hrs by sulforhodamine B assay relative to control; type: functional
M14 = test: Cytotoxicity against human M14 cells at 10 uM after 48 hrs by sulforhodamine B assay relative to control; type: functional
Malme-3M = test: Cytotoxicity against human MALME-3M cells at 10 uM after 48 hrs by sulforhodamine B assay relative to control; type: functional
LOX IMVI = test: Cytotoxicity against human LOXIMVI cells at 10 uM after 48 hrs by sulforhodamine B assay relative to control; type: functional
SNB-75 = test: Cytotoxicity against human SNB75 cells at 10 uM after 48 hrs by sulforhodamine B assay relative to control; type: functional
U-251 = test: Cytotoxicity against human U251 cells at 10 uM after 48 hrs by sulforhodamine B assay relative to control; type: functional
SF-539 = test: Cytotoxicity against human SF539 cells at 10 uM after 48 hrs by sulforhodamine B assay relative to control; type: functional
SNB-19 = test: Cytotoxicity against human SNB19 cells at 10 uM after 48 hrs by sulforhodamine B assay relative to control; type: functional
SF-295 = test: Cytotoxicity against human SF295 cells at 10 uM after 48 hrs by sulforhodamine B assay relative to control; type: functional
SF-268 = test: Cytotoxicity against human SF268 cells at 10 uM after 48 hrs by sulforhodamine B assay relative to control; type: functional
SW-620 = test: Cytotoxicity against human SW620 cells at 10 uM after 48 hrs by sulforhodamine B assay relative to control; type: functional
KM12 = test: Cytotoxicity against human KM12 cells at 10 uM after 48 hrs by sulforhodamine B assay relative to control; type: functional
HT-29 = test: Cytotoxicity against human HT-29 cells at 10 uM after 48 hrs by sulforhodamine B assay relative to control; type: functional
HCT-15 = test: Cytotoxicity against human HCT15 cells at 10 uM after 48 hrs by sulforhodamine B assay relative to control; type: functional
HCT-116 = test: Cytotoxicity against human HCT116 cells at 10 uM after 48 hrs by sulforhodamine B assay relative to control; type: functional
HCC 2998 = test: Cytotoxicity against human HCC2998 cells at 10 uM after 48 hrs by sulforhodamine B assay relative to control; type: functional
COLO 205 = test: Cytotoxicity against human COLO205 cells at 10 uM after 48 hrs by sulforhodamine B assay relative to control; type: functional
NCI-H522 = test: Cytotoxicity against human NCI-H522 cells at 10 uM after 48 hrs by sulforhodamine B assay relative to control; type: functional
NCI-H460 = test: Cytotoxicity against human NCI-H460 cells at 10 uM after 48 hrs by sulforhodamine B assay relative to control; type: functional
NCI-H322M = test: Cytotoxicity against human NCI-H322M cells at 10 uM after 48 hrs by sulforhodamine B assay relative to control; type: functional
NCI-H23 = test: Cytotoxicity against human NCI-H23 cells at 10 uM after 48 hrs by sulforhodamine B assay relative to control; type: functional
NCI-H226 = test: Cytotoxicity against human NCI-H226 cells at 10 uM after 48 hrs by sulforhodamine B assay relative to control; type: functional
HOP-62 = test: Cytotoxicity against human HOP62 cells at 10 uM after 48 hrs by sulforhodamine B assay relative to control; type: functional
[3] = Cytotoxicity against human EKVX cells at 10 uM after 48 hrs by sulforhodamine B assay relative to control; type: functional
A549 = test: Cytotoxicity against human A549 cells at 10 uM after 48 hrs by sulforhodamine B assay relative to control; type: functional
SR = test: Cytotoxicity against human SR cells at 10 uM after 48 hrs by sulforhodamine B assay relative to control; type: functional
RPMI-8226 = test: Cytotoxicity against human RPMI8226 cells at 10 uM after 48 hrs by sulforhodamine B assay relative to control; type: functional
MOLT-4 = test: Cytotoxicity against human MOLT4 cells at 10 uM after 48 hrs by sulforhodamine B assay relative to control; type: functional
K562 = test: Cytotoxicity against human K562 cells at 10 uM after 48 hrs by sulforhodamine B assay relative to control; type: functional
HL-60(TB) = test: Cytotoxicity against human HL-60(TB) cells at 10 uM after 48 hrs by sulforhodamine B assay relative to control; type: functional
CCRF-CEM = test: Cytotoxicity against human CCRF-CEM cells at 10 uM after 48 hrs by sulforhodamine B assay relative to control; type: functional
PC-3 [4] = test: Cytotoxicity against human PC3 cells after 48 hrs by sulforhodamine B assay; type: functional, cell-based; conditions: PC-3, 48 h

O=C(CN1CCCC1)Nc1ccc2c(c1)C(=O)c1cc(NC(=O)CN3CCCC3)ccc1-2
inhibition (Homo sapiens): inactive | Activity (CAKI-1): 91.43% | Activity (MDA-MB-468): 99.42% | Activity (T47D): 105.79% | Activity (BT-549): 101.36% | Activity [1]: 100.68% | Activity (MDA-MB-231): 73.88% | Activity (MCF7): 62.7% | Activity (DU-145): 83.47% | Activity (PC-3 [2]): 85.69% | Activity (UO-31): 69.71% | Activity (TK-10): 91.73% | Activity (SN12C): 87.69% | Activity (RXF 393): 88.07% | Activity (ACHN): 102.77% | Activity (786-0): 90.88% | Activity (NCI/ADR-RES): 93.68% | Activity (OVCAR-8): 69.01% | Activity (OVCAR-5): 128.57% | Activity (OVCAR-4): 71.07% | Activity (OVCAR-3): 113.24% | Activity (IGROV-1): 86.73% | Activity (UACC-62): 103.81% | Activity (UACC-257): 106.11% | Activity (SK-MEL-5): 102.03% | Activity (SK-MEL-28): 103.08% | Activity (SK-MEL-2): 106.76% | Activity (MDA-MB-435): 84.99% | Activity (M14): 103.87% | Activity (Malme-3M): 130.28% | Activity (LOX IMVI): 90.25% | Activity (SNB-75): 88.15% | Activity (U-251): 81.2% | Activity (SF-539): 99.41% | Activity (SNB-19): 96.18% | Activity (SF-295): 86.51% | Activity (SF-268): 107.06% | Activity (SW-620): 68.12% | Activity (KM12): 85.82% | Activity (HT-29): 19.04% | Activity (HCT-15): 99.02% | Activity (HCT-116): 79.74% | Activity (HCC 2998): 90.44% | Activity (COLO 205): 89.07% | Activity (NCI-H522): 72.46% | Activity (NCI-H460): 88.56% | Activity (NCI-H322M): 73.45% | Activity (NCI-H23): 93.89% | Activity (NCI-H226): 104.39% | Activity (HOP-62): 88.02% | Activity [3]: 100.27% | Activity (A549): 76.89% | Activity (SR): 74.15% | Activity (RPMI-8226): 78.34% | Activity (MOLT-4): 61.26% | Activity (K562): 68.94% | Activity (HL-60(TB)): 84.5% | Activity (CCRF-CEM): 68.3% | IC50 (PC-3 [4]): 7.78 µM

CCCSCC(=O)Nc1ccc2c(c1)C(=O)c1cc(NC(=O)CSCCC)ccc1-2
inhibition (Homo sapiens): inactive | Activity (CAKI-1): 116.5% | Activity (MDA-MB-468): 98.19% | Activity (T47D): 94.56% | Activity (BT-549): 79.13% | Activity [1]: 92.42% | Activity (MDA-MB-231): 110.09% | Activity (MCF7): 92.24% | Activity (DU-145): 111.27% | Activity (PC-3 [2]): 94.41% | Activity (UO-31): 104.91% | Activity (TK-10): 109.43% | Activity (SN12C): 102.58% | Activity (RXF 393): 73.43% | Activity (ACHN): 110.7% | Activity (786-0): 88.03% | Activity (NCI/ADR-RES): 100.59% | Activity (OVCAR-8): 122.23% | Activity (OVCAR-5): 106.86% | Activity (OVCAR-4): 106.85% | Activity (OVCAR-3): 108.65% | Activity (IGROV-1): 103.61% | Activity (UACC-62): 107.45% | Activity (UACC-257): 137.38% | Activity (SK-MEL-5): 91.99% | Activity (SK-MEL-28): 90.58% | Activity (SK-MEL-2): 106.67% | Activity (MDA-MB-435): 102.08% | Activity (M14): 99.86% | Activity (Malme-3M): 107% | Activity (LOX IMVI): 90.88% | Activity (SNB-75): 88.25% | Activity (U-251): 82.28% | Activity (SF-539): 77.18% | Activity (SNB-19): 102.55% | Activity (SF-295): 69.6% | Activity (SF-268): 121.78% | Activity (SW-620): 117.49% | Activity (KM12): 90.34% | Activity (HT-29): 93.31% | Activity (HCT-15): 86.05% | Activity (HCT-116): 97.47% | Activity (HCC 2998): 101.22% | Activity (COLO 205): 111.93% | Activity (NCI-H522): 80.15% | Activity (NCI-H460): 110.9% | Activity (NCI-H322M): 84.33% | Activity (NCI-H23): 98.99% | Activity (NCI-H226): 110.7% | Activity (HOP-62): 106.36% | Activity [3]: 100.02% | Activity (A549): 99.19% | Activity (SR): 76.63% | Activity (RPMI-8226): 45.12% | Activity (MOLT-4): 82.96% | Activity (K562): 84.45% | Activity (HL-60(TB)): 99.03% | Activity (CCRF-CEM): 90.86% | IC50 (PC-3 [4]): > 30 µM

Reference: ChEMBL document CHEMBL2439971, “Design, synthesis and antiproliferative evaluation of fluorenone analogs with DNA topoisomerase I inhibitory properties” (Bioorg Med Chem, 2013)
